According to PubChem BioAssay AID330 (DTP/NCI, 2004):
Where “and” joins values, the source holds several entries; their conditions need not be identical. Equal entries are not always repeated. Inconclusive results and toxic doses are left out. The calls were made as follows: active = survival T/C of 150% or more; inactive = T/C below 125% in these data.

Tested on: P388 leukemia ip, CD2F1 mice, survival T/C
Experiment: NCI In Vivo Anticancer Drug Screen. Data for tumor model P388 Leukemia (intraperitoneal) in CD2F1 (CDF1) mice
Details: endpoint: median survival time, higher = longer survival
Outline: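 Mice carrying the transplanted tumor received test compound or vehicle. Survival was recorded in each group, and the value is the treated-group measurement divided by that of the vehicle-treated control group.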

[1] = dose: 100.0 mg/kg/injection, schedule: Q04DX003 (ip), vehicle: Klucel (hydroxypropylcellulose) (HPC)
[2] = dose: 50.0 mg/kg/injection, schedule: Q01DX005 (ip), vehicle: Klucel (hydroxypropylcellulose) (HPC)
[3] = dose: 50.0 mg/kg/injection, schedule: Q01DX005 (ip), vehicle: saline with Tween-80
[4] = dose: 100.0 mg/kg/injection, schedule: Q01DX005 (ip), vehicle: saline with Tween-80
[5] = dose: 200.0 mg/kg/injection, schedule: Q01DX005 (ip), vehicle: saline with Tween-80

Measured: T/C

CCC[CH2][Sn]([CH2]CCC)[CH2]CCC.CCC[CH2][Sn]([CH2]CCC)[CH2]CCC
inactive: dose: 1.56 mg/kg/injection, schedule: Q04DX002 (ip), vehicle: saline with Tween-80 103 % of control | dose: 3.12 mg/kg/injection, schedule: Q04DX002 (ip), vehicle: saline with Tween-80 117 % of control | dose: 6.25 mg/kg/injection, schedule: Q04DX002 (ip), vehicle: saline with Tween-80 103 % of control and 109 % of control | [1] 118 % of control

CC1CCC=CC(=O)C1 (stereo unspecified)
inactive: [1] 102 % of control | dose: 200.0 mg/kg/injection, schedule: Q04DX003 (ip), vehicle: Klucel (hydroxypropylcellulose) (HPC) 108 % of control

Clc1nc2ccccc2[nH]1
inactive: dose: 25.0 mg/kg/injection, schedule: Q01DX009 (ip), vehicle: saline 101 % of control | dose: 50.0 mg/kg/injection, schedule: Q01DX009 (ip), vehicle: saline 99 % of control | dose: 100.0 mg/kg/injection, schedule: Q01DX009 (ip), vehicle: saline 95 % of control | dose: 200.0 mg/kg/injection, schedule: Q01DX009 (ip), vehicle: saline 98 % of control

O=C(Cl)CC1CC(=O)OC1=O (stereo unspecified)
inactive: dose: 50.0 mg/kg/injection, schedule: Q01DX009 (ip), vehicle: saline with Tween-80 100 % of control | dose: 100.0 mg/kg/injection, schedule: Q01DX009 (ip), vehicle: saline with Tween-80 95 % of control

CCCn1c(C)nc2ncn(-c3ccccc3)c2c1=O
inactive: [2] 101 % of control | dose: 100.0 mg/kg/injection, schedule: Q01DX005 (ip), vehicle: Klucel (hydroxypropylcellulose) (HPC) 102 % of control | dose: 200.0 mg/kg/injection, schedule: Q01DX005 (ip), vehicle: Klucel (hydroxypropylcellulose) (HPC) 101 % of control

COC1=CC(C(=O)O)C=C(OC)C1
inactive: [3] 102 % of control | [4] 104 % of control | [5] 89 % of control

CCC/C(=N\N=C(N)N)c1ccc(Cl)cc1
inactive: dose: 25.0 mg/kg/injection, schedule: Q04DX002 (ip), vehicle: saline with Tween-80 100 % of control

Nc1cccc2c1C(O)c1ccccc1-2 (stereo unspecified)
inactive: [3] 95 % of control | [4] 99 % of control | [5] 90 % of control

c1ccc(N2CCCCCN2c2ccccc2)cc1
inactive: dose: 25.0 mg/kg/injection, schedule: Q01DX001 (ip), vehicle: saline with Tween-80 100 % of control | dose: 50.0 mg/kg/injection, schedule: Q01DX001 (ip), vehicle: saline with Tween-80 100 % of control | dose: 100.0 mg/kg/injection, schedule: Q01DX001 (ip), vehicle: saline with Tween-80 100 % of control | dose: 200.0 mg/kg/injection, schedule: Q01DX001 (ip), vehicle: saline with Tween-80 92 % of control

O=C(O)CSC(=O)Nc1ccc(N=Nc2ccccc2)cc1
inactive: [3] 102 % of control | [4] 91 % of control

CC(=O)SCC[n+]1cc2ccccc2c2ccccc21
inactive: dose: 3.12 mg/kg/injection, schedule: Q01DX005 (ip), vehicle: Klucel (hydroxypropylcellulose) (HPC) 95 % of control | dose: 6.25 mg/kg/injection, schedule: Q01DX005 (ip), vehicle: Klucel (hydroxypropylcellulose) (HPC) 99 % of control | dose: 12.5 mg/kg/injection, schedule: Q01DX005 (ip), vehicle: Klucel (hydroxypropylcellulose) (HPC) 105 % of control and 108 % of control | dose: 25.0 mg/kg/injection, schedule: Q01DX005 (ip), vehicle: Klucel (hydroxypropylcellulose) (HPC) 100 % of control | [2] 115 % of control and 118 % of control

Oc1ccccc1
inactive: dose: 0.12 % in 0.5 ml injection vol, schedule: Q01DX009 (ip), vehicle: water 103 % of control | dose: 0.25 % in 0.5 ml injection vol, schedule: Q01DX009 (ip), vehicle: water 103 % of control | dose: 0.5 % in 0.5 ml injection vol, schedule: Q01DX009 (ip), vehicle: water 111 % of control | dose: 1.0 % in 0.5 ml injection vol, schedule: Q01DX009 (ip), vehicle: water 118 % of control

CC(=O)N1CCCC1C(=O)O (stereo unspecified)
inactive: dose: 25.0 mg/kg/injection, schedule: Q04DX003 (ip), vehicle: saline 102 % of control | dose: 50.0 mg/kg/injection, schedule: Q04DX003 (ip), vehicle: saline 112 % of control | dose: 100.0 mg/kg/injection, schedule: Q04DX003 (ip), vehicle: saline 105 % of control and 87 % of control | dose: 400.0 mg/kg/injection, schedule: Q04DX003 (ip), vehicle: saline 101 % of control
